System: TNFα
Assay: Effect on TNFα expression, cell based immunoassay in RAW 264.7 cells
Set-up: species or system mouse
Protocol: This was carried out using a cell based immunoassay using mouse monocyte/macrophage cells (RAW 264.7; ATCC American Tissue Culture Collection). The experiment was done in triplicates. The data were analyzed by t-test. […] Based on this tryptophan is an ant-inflammatory amino acid.

Compound: N[C@@H](Cc1c[nH]c2ccccc12)C(=O)O [Tryptophan]
- TNFα (Tryptophan 50 μg/ml, control Medium + LPS 1 μg/ml 6156, triplicates): 4869 pg/mL
- TNFα, treated value versus control value (t-test) (p<0.05): significant difference
